Patent US7141249B2, “Rapidly soluble drug composition” (Dainippon Sumitomo Pharma Co., Ltd., priority 1997, dated 2006)

How the values were obtained:
[1] = Water-solubility of AS-3201; type: physicochemical; details: in the range of low pH
Excerpt: The “micronized AS-3201” means powders of AS-3201 having a mean particle size of less than about 20 μm. The “mean particle size” means a particle size of being at 50% in cumulative particle distribution on weight or volume basis (ref., HA Lieberman et al., “Pharmaceutical Dosage Forms: Tablets”, Marcel Dekker, Inc., New York, 1990, vol. 2, 174–186; Kouichi IINOYA (edit.) “Handbook of Powder and Particle Measurement (in Japanese)”, The NIKKAN KOGYO SHINBUN LTD., 1981, 29–36). The “dissolution test” means a test in which the dissolution of AS-3201 from test pharmaceutical compositions in an amount corresponding to 20 mg of AS-3201 is evaluated according to Paddle method (50 rpm) specified in the Twelfth Edition of the Pharmacopoeia of Japan, using a 0.2 M phosphate buffer (pH 6.5, 900 ml) as a test solution, and assaying AS-3201 by spectrophotometry at 300 nm. The “pKa1” means an acid dissociation exponent of an acidic substance at 25° C. in an infinitely diluted solution thereof. When an acidic substance is a polybasic acid, it means an acid dissociation exponent at the first step of dissociation. The “water-solubility” means a maximum amount of a solute being dissolved in 100 ml of water. The term “about” is used with the intention of including values following said term.

[2] = Acidity (pKa) of AS-3201; type: physicochemical
[3] = Plasma concentration after administration; type: in vivo; details: among the individuals to be administered
[4] = biological target: aldose reductase (Homo sapiens, UniProt P15121); details: disclosed in earlier patents (U.S. Pat. No. 5,258,382, JP-A-6-192222, JP-A-8-176105); cited from earlier work

water-solubility [1]: several | pKa [2]: 5.6 to 5.8 | plasma concentration of AS-3201 (variation among individuals) [3]: varies widely
Structure (SMILES): O=C1C[C@@]2(C(=O)N1)C(=O)N(Cc1ccc(Br)cc1F)C(=O)c1cccn12 [AS-3201, (R)-2-(4-bromo-2-fluorobenzyl)-1,2,3,4-tetrahydropyrrolo[1,2-a]pyrazine-4-spiro-3′-pyrrolidine-1,2′,3,5′-tetrone]
aldose reductase inhibitory activity [4]: potent
